Legend:
Aggrecan = assay: Immunohistochemistry of Aggrecan in repaired tissue; type: in vivo, New Zealand white rabbits
Method: (§1) Histological examination steps were as follows: in an environment of 4° C., the specimens used for histological analysis were fixed in 10% neutral formalin (Sig-ma-Aldrich, USA) for 24 hours, and decalcified with a 10% ethylenediaminetetraacetic acid (EDTA) buffer solution (Sigma-Aldrich, USA) for 28 days. The sample was embedded in paraffin wax (Sigma-Aldrich, USA), cut into 4 μm thick sagittal sections, and subjected to staining with hemotoxylin and cosin, Masson trichrome and Alcian Blue (Sigma Aldrich, USA). The sections were detected immunohistochemically for the contents of the type II collagen and Aggrecan. […] These sections were scored blindly by 3 experienced pathologists with an improved O'Driscoll scoring system (MODS).
(§2) The steps of histological morphology analysis were as follows: in all the sample sections, the original defect region was a 3*3 mm square. […] The percentages of areas of the new subchondral bone, the cartilage, the collagen fiber and the glycosaminoglycan (GAG) in the total area of the defect region was detected with image analysis software (image pro plus 6.0). Their respective contents were expressed as integrated optical density (IOD) of the type II collagen and Aggrecan measured by Image pro plus 6.0. […]

[1] = test system: rabbit temporomandibular joint condylar osteochondral defect (3 mm*3 mm); assay: Histological evaluation (H&E, histomorphometry, MODS score) of repaired osteochondral defect; type: in vivo, New Zealand white rabbits; settings: group 3
Method: In this example, 3 groups of rabbits provided in Example 2 were used, and at 1, 2 and 4 weeks after operation, 6 animals in each group were randomly selected for euthanasia. The right temporomandibular joint and surrounding tissues thereof were taken out, and the gross specimens were analyzed for tissue morphology and statistically analyzed.
Histological examination steps were as follows: in an environment of 4° C., the specimens used for histological analysis were fixed in 10% neutral formalin (Sig-ma-Aldrich, USA) for 24 hours, and decalcified with a 10% ethylenediaminetetraacetic acid (EDTA) buffer solution (Sigma-Aldrich, USA) for 28 days. The sample was embedded in paraffin wax (Sigma-Aldrich, USA), cut into 4 μm thick sagittal sections, and subjected to staining with hemotoxylin and cosin, Masson trichrome and Alcian Blue (Sigma Aldrich, USA). The sections were detected immunohistochemically for the contents of the type II collagen and Aggrecan. All the sections were observed and photographed by utilizing an optical microscope (CX51; Olympus) and a digital charge coupled device camera (TrueChrome Metrics; Tucsen Photonics). These sections were scored blindly by 3 experienced pathologists with an improved O'Driscoll scoring system (MODS).
The steps of histological morphology analysis were as follows: in all the sample sections, the original defect region was a 3*3 mm square. The top of the square was flush with the cartilage surfaces on both sides. The percentages of areas of the new subchondral bone, the cartilage, the collagen fiber and the glycosaminoglycan (GAG) in the total area of the defect region was detected with image analysis software (image pro plus 6.0). Their respective contents were expressed as integrated optical density (IOD) of the type II collagen and Aggrecan measured by Image pro plus 6.0.
At 4 weeks after operation, the tissues were retrieved for histological treatment and sectioning. According to the implants in the defect region, they were divided into a group 1 as the control group (A in FIG. 3, A1-A2), a group 2 as the Gel-MA group (B in FIG. 3, B1-B2) and a group 3 as the Hst1/Gel-MA group (C in FIG. 3, C1-C2). The dotted square area in FIG. 3 was the original defect region (3 mm*3 mm). A-C scale=500 μm. […]
The quantitative analysis of areas of new cartilage and subchondral bones and the MODS score results of repairing osteochondral defects at 1, 2 and 4 weeks after operation were shown in FIG. 4. In FIG. 4, A was the quantitative analysis of the area of the new cartilage, B was the quantitative analysis of the area of the subchondral bone, and C, D and E were the MODS score results of repairing osteochondral defects at 1, 2 and 4 weeks after operation, respectively. […]

collagen fibers = assay: Masson trichrome staining, collagen fiber area in defect region; type: in vivo, New Zealand white rabbits; settings: 2 and 4 weeks; group 3 versus groups 2 and 1; P<0.05
Method: as §1, §2

[2] = test system: defect region of a critical size in rabbit condyle; assay: Effect of Hst1 dose in Gel-MA on cartilage repair (H&E histology); type: in vivo; settings: 2 weeks
From the text: In order to determine the optimal concentration of Hst1 for promoting osteochondral repair, Gel-M and 3 different doses of Hst1 at (A, A1) 50, (B, B1) 500, and (C, C1) 1,000 (μg)/sample were implanted in the defect region of a critical size in rabbit condyle, and the tissues were taken out at 2 weeks after operation, subjected to histological treatment and sectioned to explore the cartilage repair effects of the 3 different concentrations of Hst1.
The 3 different concentrations of Hst1 were set as follows: group A: 50 μg of Hst1+21.1 μl of a Gel-MA prepolymer solution; group B: 500 μg of Hst1+21.1 μl of a Gel-MA prepolymer solution; and group C: 1,000 μg of Hst1+21.1 μl of a Gel-MA prepolymer solution (the model volume of condylar defect was 21.1 μl/sample).
The optical photomicrographs of H&E stained tissue sections of rabbit condyle for comparison were shown in FIG. 8, wherein the dotted square area was the original defect region (3 mm*3 mm), the A-C scale was 500 μm; and the A1-C1 scale=50 μm. […] Therefore, 500 μg of Hst1/sample (500 μg of Hst1+21.1 μl of Gel-MA) was selected as the preferred concentration.

[3] = test system: rabbit temporomandibular joint condylar osteochondral defect (3 mm*3 mm); assay: Macroscopic (ICRS) evaluation of repair of rabbit condylar osteochondral defect; type: in vivo, New Zealand white rabbits; settings: overall conclusion, 1 to 4 weeks
From the text: 54 adult male New Zealand white rabbits (Zhejiang Chinese Medical University, IACUC-20180625-04) were randomized into 3 groups, with 18 rabbits in each group. The 54 rabbits were operated at right condyle, while the left condyle remained intact.
They were divided into 3 groups, of which group 1 was a control group without any treatment in the defect region; group 2 was a Gel-MA group implanted with Gel-MA hydrogel in the defect region; and group 3 was a Hst1/Gel-MA group implanted with HST1 functionalized Gel-MA in the defect region (provided in Example 1). […]
At 1, 2 and 4 weeks after operation, 6 animals in each group were randomly selected for euthanasia. The right temporomandibular joint and surrounding tissues thereof were taken out, and the gross specimens were evaluated by macroscopic scoring, and statistically analyzed.
The macroscopic scoring evaluation of the gross specimens adopted a macroscopic scoring system of the International Cartilage Repair Society (ICRS), and the gross appearance of the defect site was photographed and subjected to blind evaluation by 3 independent graders. The scoring system evaluated the cartilage repair in the defect region from four aspects: the degree of repair, the integration of a boundary area, a macroscopic appearance and the overall repair evaluation. […]

type II collagen = assay: Immunohistochemistry of type II collagen in repaired tissue; type: in vivo, New Zealand white rabbits
Method: as §1, §2

glycosaminoglycan (GAG) = assay: Alcian Blue staining, glycosaminoglycan (GAG) area in defect region; type: in vivo, New Zealand white rabbits; settings: 2 and 4 weeks; group 3 versus groups 2 and 1; P<0.05
Method: as §1, §2

[4] = 4 weeks after operation, group 3
[5] = 4 weeks, group 3, quantitative analysis (IOD)

Histatin-1 polypeptide (DSHEKRHHGYRRKFHEKHHSHREFPFYGDYGSNYLYDN; linear Hst1)
expression of Aggrecan in the new cartilage tissue (Aggrecan; [4]): close to those in the normal cartilage tissue
expression of Aggrecan compared with the groups 2 and 1 (Aggrecan; [5]): more significant
histological observation of defect region ([1]; 1 week after operation): a new tissue was observed in the pores of the undegraded scaffold
histological observation of defect region ([1]; 2 weeks after operation): new cartilage and bone tissues gradually grew, infiltrated and replaced the scaffold
histological observation of defect region ([1]; 4 weeks after operation): the new cartilage proliferated and migrated to the center site of the defect
new blood vessels at junction between subchondral bone and functionalized hydrogel ([1]; 4 weeks after operation): formation of new blood vessels could be detected
area percentages of the collagen fibers in the new cartilage and the subchondral bone in the total area of the defect region (collagen fibers): significantly higher than those in the groups 2 and 1
histological repair of defect region ([2]; group A: 50 μg of Hst1+21.1 μl Gel-MA prepolymer solution): no new tissue was generated, and only a small amount of cell infiltration was detected
histological repair of defect region ([2]; group B: 500 μg of Hst1+21.1 μl Gel-MA prepolymer solution): several new cartilage islands could be obviously observed
histological repair of defect region ([2]; group C: 1,000 μg of Hst1+21.1 μl Gel-MA prepolymer solution): a large number of new subchondral bones were generated, but almost no new cartilage tissue was detected
effect on promoting the repair of cartilage injury (macroscopic) [3]: very significant effect on promoting the repair of cartilage injury
expression of the type II collagen in the new cartilage tissue (type II collagen; [4]): close to those in the normal cartilage tissue
expression of the type II collagen compared with the groups 2 and 1 (type II collagen; [5]): more significant
area percentages of glycosaminoglycan (GAG) in the new cartilage and the subchondral bone in the total area of the defect region (glycosaminoglycan (GAG)): significantly higher than those in the groups 2 and 1

From patent publication US20250135071A1, “USE OF POLYPEPTIDE IN PROMOTION OF CARTILAGE REGENERATION OR REPAIR” (HANGZHOU HUIBO SCIENCE AND TECHNOLOGY CO., LTD, priority 2021, published 2025)
